Here are results for 3 molecules from patent US20150265584A1, “LEVUGLANDIN ADDUCTS HISTONE H4 IN A CYCLOOXYGENASE-2-DEPENDENT MANNER, ALTERING ITS INTERACTION WITH DNA” (VANDERBILT UNIVERSITY, priority 2014, published 2015).

Test [1] concerns A549 cells. The experiment in a line: LG-lysyl adduct formation on histones in COX-2-stimulated, AA-treated A549 cells (LC/ESI/MS/MS). Type of test: cell-based, human. The protocol: (§1) To stimulate COX-2 expression, A549 or RAW264.7 cells were treated overnight with 5 ng/mL IL-1β (A549) or 10 μg/mL LPS and 10 U/mL IFNγ (RAW264.7) in serum-free medium. When indicated, cells were pretreated with indomethacin, aldehyde scavengers (glucosamine, 3-MoSA, PPM or EtSA), or vehicle (ethanol for indomethacin, H2O for scavengers) for 45 min, and then given 20 μM arachidonic acid (AA) or DMSO vehicle for 1 h before lysing.
Cultured cells were lysed in hypotonic buffer (10 mM Tris/10 mM NaCl/3 mM MgCl2) containing 1 mM pyridoxamine and 100 μM indomethacin to prevent the artifactual formation of LGE2 during the lytic process. After letting cells swell on ice, membranes were disrupted by addition of Triton X-100 (0.5% final concentration) and vortexing. […] Protein concentration was determined using the method of Bradford. […]
Histone samples were prepared for mass spectrometry by addition of ammonium bicarbonate to 5 mM final concentration before digesting to single amino acids by protease step-digestion as previously described. […] Samples were evaluated by electrospray ionization (ESI) LC/MS/MS on a ThermoFisher TSQ Quantum triple quadrapole mass spectrometer in positive ion mode and quantitated by isotopic dilution as previously described, with the exception of a reduced flow rate of 0.1 mL/min.

Test [2] concerns histone H4. The experiment in a line: Salt extraction of A549 nuclei, histone H4 solubility (Western blot). Type of test: cell-based, human. Particulars: A549 cells, 500 μM EtSA 45 min prior to 20 μM AA; 0.6-1.2 M NaCl. The protocol: 60-80% confluent A549 cells were stimulated and treated with AA±500 μM EtSA before scraping cells in lysis media for nuclear isolation as above. After addition of Tritox X-100 and vortexing, 1.5 mL of each sample was aliquoted into an eppendorf and centrifuged to separate nuclei. Pellets were washed with PBS and all buffer removed. Nuclear pellets were resuspended in extraction buffer containing 0.6M, 0.9M, 1.2M or 1.5M NaCl (with 10 mM Tris, pH 7.5, 3 mM MgCl2, 0.5% NP-40, and protease inhibitor cocktail) and incubated 10 min on ice. Following this extraction period, the nuclei were centrifuged at 16,000×g to obtain the soluble fraction. This was sonicated, denatured at 95° C., and analyzed by SDS-PAGE and Western blotting, using Ponceau stain to visualize proteins and confirm equal loading, and anti-H4 antibody (Abcam, Cambridge, Mass.).

Test [3] relates to COX-2. The test is described as follows: PGE2 production in cell media as measure of COX-2 activity (GC/MS), A549 cells. Type of test: cell-based, human. The protocol:
as §1
A sample of cellular media was taken just prior to lysis and centrifuged to remove any cellular debris. For PGE2 analysis, samples were spiked with 2 ng of [^2H7] PGE2 as an internal standard. Prostaglandins were isolated and derivatized for analysis by GC/MS, operating in negative ion chemical ionization (NICI) mode and monitoring selected ions as previously described. For the […] internal standard, m/z=528. To account for the deuterium-protium exchange at the position C12 of [^2H7] PGE2, the summation of the signals obtained at m/z=530, m/z=531 and m/z=532 was performed.

The test system of test [4] is RAW264.7 cells. The experiment in a line: LG-lysyl adduct formation on histones in COX-2-stimulated, AA-treated RAW264.7 cells (LC/ESI/MS/MS). Type of test: cell-based, mouse. Particulars: for LG adduct formation on histones (LG-lysyl lactam adduct): 500 μM scavenger pretreated 45 min, 20 μM AA 1 h, n=2. The protocol: as §1
Cultured cells were lysed in hypotonic buffer (10 mM Tris/10 mM NaCl/3 mM MgCl2) containing 1 mM pyridoxamine and 100 μM indomethacin to prevent the artifactual formation of LGE2 during the lytic process. After letting cells swell on ice, membranes were disrupted by addition of Triton X-100 (0.5% final concentration) and vortexing. Nuclei were isolated by centrifugation for 10 min at 1000×g, and the resulting pellet washed with PBS. Histones were extracted in 0.4 N H2SO4, precipitated with trichloracetic acid, and washed with acetone. […] Histones were resolubilized in dilute NaOH, and pH neutralized with HCl. Protein concentration was determined using the method of Bradford. For tissue, a portion of frozen liver was homogenized in buffer containing 40 mM sodium citrate, and 1% Triton X-100 with 3 mM Trolox and 100 μM indomethacin. The supernatant was separated from settled debris, and nuclei were pelleted at 500×g and washed. Nuclear pellets were frequently transferred to fresh tubes to avoid contamination by floating lipid debris; any remaining was removed with a cotton swab. Histones were extracted as above. All centrifugation steps were carried out at 4° C.
Histone samples were prepared for mass spectrometry by addition of ammonium bicarbonate to 5 mM final concentration before digesting to single amino acids by protease step-digestion as previously described. In the case of immunoblots, proteins were digested directly off the nitrocellulose through incubation of the nitrocellulose strip in 30 μg/mL Pronase in ammonium bicarbonate buffer, and later addition of aminopeptidase. All samples were centrifuged at 2000×g for 10 min. after final digestion to remove precipitate, spiked with 0.2 ng ^13C-lysyl-lactam internal standard, and purified on prepared tC18 cartridges (Waters Corp., Milford, Mass.). Samples on tC18 cartridges were washed with water, then 30% methanol, before being eluted in 80% methanol and concentrated by evaporation. Samples were evaluated by electrospray ionization (ESI) LC/MS/MS on a ThermoFisher TSQ Quantum triple quadrapole mass spectrometer in positive ion mode and quantitated by isotopic dilution as previously described, with the exception of a reduced flow rate of 0.1 mL/min.

For the molecule `CCc1ccc(O)c(CN)c1` [EtSA, 5-ethylsalicylamine], in test [1] (stimulated A549 cells, 30, 300 or 1000 μM EtSA, 20 μM AA 1 h), the LG-histone adduct formation result was “inhibited LG-histone adduct formation”. In addition, in test [2], the “histone H4 elution at lower salt concentrations (DNA-histone interaction)” value was “reversed”. The PGE2 production result in test [3] (highest concentration tested (1000 μM EtSA), 20 μM AA 1 h) is recorded as “without affecting PGE2 production”; in test [3] (lower doses of EtSA (data not shown)), “no effect on PGE2 production”. Besides, the “LG adduct formation on histones (LG-lysyl lactam adduct)” value in test [4] (RAW264.7 cells) is “most effectively blocked adduct formation”. In test [4] (in comparison with salicylamine, pyridoxamine and their other analogues), the “protecting histones from modification by levuglandins, comparison with other scavengers” value was “most potent in protecting histones from modification by levuglandins”.
In the case of `COc1ccc2c(c1)c(CC(=O)O)c(C)n2C(=O)c1ccc(Cl)cc1` [indomethacin, reference compound], the LG-histone adduct formation result is listed as “blocked” in test [1] (A549 cells, 50 μM indomethacin preincubated 45 min, 20 μM AA) and “blocked” in test [4] (RAW264.7 cells, 50 μM indomethacin preincubated 45 min, 20 μM AA).
With “pentylpyridoxamine [PPM, reference compound]”, the “LG adduct formation on histones (LG-lysyl lactam adduct)” value in test [4] (RAW264.7 cells) is “partially inhibited histone adduct formation, but was much less potent than 5-ethylsalicylamine”.
